Measurements reported in publication PMC12276029, “Structure−Activity Relationships of New 1‐Aryl‐1H‐Indole Derivatives as SARS‐CoV‐2 Nsp13 Inhibitors” (Chemmedchem, 2025).
Read-outs that look alike come from different tables or passages of the source.

How the values were obtained:
[1] = target: T1, SARS-CoV-2 nsp13 (Severe acute respiratory syndrome coronavirus 2, UniProt P0DTD1); assay: SARS-CoV-2 nsp13 unwinding-associated activity assay; format: biochemical; settings: for IC50: SARS-CoV-2 nsp13-associated unwinding activity, means ± SD from two experiments in triplicate, read-out: Activity in enzyme assay IC50 Unwinding BSA-TCEP
[2] = test system: SARS-CoV-2; assay: SARS-CoV-2 plaque assay in infected Vero E6 cells; format: cell-based; settings: for EC50: Severe acute respiratory syndrome coronavirus 2, plaque assay, means ± SD, n = 9, read-out: EC50, concentration reducing SARS-CoV-2 replication in Vero cells by 50%
[3] = in vitro; settings: African green monkey
[4] = target: T1, SARS-CoV-2 nsp13; assay: SARS-CoV-2 nsp13 ATPase-associated activity assay; format: biochemical; settings: for IC50: read-out: Activity in enzyme assay IC50 ATPase BSA-TCEP; for remaining activity at 30 µM: given in brackets beside IC50 >30 μM, read-out: Percentage of enzymatic residual activity, ATPase
[5] = test system: SARS-CoV-2; design: method as in PMID 37562607; settings: cited from earlier work
[6] = test system: HCoV229E; design: method as in PMID 37562607; settings: cited from earlier work
[7] = target: T1, SARS-CoV-2 nsp13; design: method as in PMID 37562607; settings: SARS-CoV-2 nsp13 ATPase; cited from earlier work
[8] = target: T1, SARS-CoV-2 nsp13; design: method as in PMID 37562607; settings: SARS-CoV-2 nsp13 unwinding; cited from earlier work
[9] = test system: Vero cells; design: method as in PMID 37562607; settings: cited from earlier work
[10] = test system: MERS-CoV; settings: cited from earlier work
[11] = test system: SARS-CoV-2; settings: read-out: EC50 antiviral activity; cited from earlier work
[12] = target: T1, SARS-CoV-2 nsp13; settings: read-out: IC50 vs unwinding; cited from earlier work
[13] = SARS-CoV-2 nsp13-associated ATPase activity, means ± SD from two experiments in triplicate

SMILES	IC50 [1]	IC50 [4, 13]	further results
CCOC(=O)/C(O)=C/C(=O)/C=C/c1cn(-c2ccc(Cl)cc2)c2ccccc12 [Compound 6f]	2.05 ± 0.03 µM	3.39 ± 0.11 µM	SI = CC50/EC50 [2]: >12; EC50 [2]: 8 ± 2.19 µM; CC50 [3]: > 100 µM
COc1ccc(-n2cc(C(=O)/C=C(\O)C(=O)O)c3ccccc32)cc1 [Compound 7a]	> 30 µM	> 30 µM	remaining activity at 30 µM ([1]; given in brackets beside IC50 >30 μM, read-out: Percentage of enzymatic residual activity, unwinding): 63.9%; remaining activity at 30 µM [4]: 68.7%
CCOC(=O)/C(O)=C/C(=O)c1cn(-c2ccccc2)c2ccccc12 [Compound 8d]	13.3 ± 3.45 µM	11.3 ± 0.89 µM	–
N#Cc1ccc(-n2cc(/C=C/C(=O)/C=C(\O)C(=O)O)c3ccccc32)cc1 [Compound 5g]	10 ± 2.07 µM	13.6 ± 3.8 µM	–
CCOC(=O)/C(O)=C/C(=O)/C=C/c1cn(-c2ccc(F)cc2)c2ccccc12 [Compound 3]	–	–	SI = CC50/EC50 [5]: >16; EC50 ([5]; read-out: EC50 SARS-CoV-2 replication): 16.1 ± 3.25 µM; activity range on HCoV229E [6]: low micromolar; IC50 [7]: 13.6 ± 3.2 µM; IC50 [8]: 5.9 ± 0.3 µM; CC50 [9]: > 264 µM; activity range on MERS-CoV [10]: submicromolar
CC[C@@]1(O)C(=O)OCc2c1cc1n(c2=O)Cc2cc3ccccc3nc2-1 [Camptothecin, reference compound]	–	–	CC50 [3]: 11.1 ± 0.16 µM
C=CCn1c(S)nnc1CSc1ccccc1[N+](=O)[O-] [SSYA10‐001]	–	–	EC50 [11]: 81 µM; IC50 [12]: 7.5 µM
O=C(/C=C(\O)C(=O)O)/C=C/c1cn(-c2ccc(C(F)(F)F)cc2)c2ccccc12 [Compound 5h]	0.21 ± 0.11 µM	14.2 ± 1.6 µM	selectivity for unwinding over ATPase ([1]; IC50 ATPase vs IC50 unwinding): 30 fold; SI = CC50/EC50 [2]: >21; EC50 [2]: 4.56 ± 1.86 µM; CC50 [3]: > 100 µM
O=C(/C=C(\O)C(=O)O)/C=C/c1cn(-c2ccccc2)c2ccccc12 [Compound 5d]	11.8 ± 0.48 µM	13.1 ± 0.37 µM	–
CCOC(=O)/C(O)=C/C(=O)c1cn(-c2ccc(C)cc2)c2ccccc12 [Compound 8b]	17.5 ± 1.37 µM	18.6 ± 1.14 µM	–
CCOC(=O)/C(O)=C/C(=O)/C=C/c1cn(-c2ccccc2)c2ccccc12 [Compound 6d]	3.77 ± 0.13 µM	4.94 ± 0.21 µM	–
COc1ccc(-n2cc(/C=C/C(=O)/C=C(\O)C(=O)O)c3ccccc32)cc1 [Compound 5a]	2.83 ± 0.54 µM	11.2 ± 1.37 µM	–
Cc1ccc(-n2cc(C(=O)/C=C(\O)C(=O)O)c3ccccc32)cc1 [Compound 7b]	1.27 ± 0.29 µM	> 30 µM	Activity in enzyme assay IC50 ATPase BSA-TCEP [4, 13]: no activity; remaining activity at 30 µM [4]: 70.8%
CCOC(=O)/C(O)=C/C(=O)/C=C/c1cn(-c2ccc(C)cc2)c2ccccc12 [Compound 6b]	13.9 ± 1.5 µM	8.64 ± 0.77 µM	–
